Biological target: T1, SIRT1 (Homo sapiens, UniProt Q96EB6)
T1 sequence (Q96EB6 1-747): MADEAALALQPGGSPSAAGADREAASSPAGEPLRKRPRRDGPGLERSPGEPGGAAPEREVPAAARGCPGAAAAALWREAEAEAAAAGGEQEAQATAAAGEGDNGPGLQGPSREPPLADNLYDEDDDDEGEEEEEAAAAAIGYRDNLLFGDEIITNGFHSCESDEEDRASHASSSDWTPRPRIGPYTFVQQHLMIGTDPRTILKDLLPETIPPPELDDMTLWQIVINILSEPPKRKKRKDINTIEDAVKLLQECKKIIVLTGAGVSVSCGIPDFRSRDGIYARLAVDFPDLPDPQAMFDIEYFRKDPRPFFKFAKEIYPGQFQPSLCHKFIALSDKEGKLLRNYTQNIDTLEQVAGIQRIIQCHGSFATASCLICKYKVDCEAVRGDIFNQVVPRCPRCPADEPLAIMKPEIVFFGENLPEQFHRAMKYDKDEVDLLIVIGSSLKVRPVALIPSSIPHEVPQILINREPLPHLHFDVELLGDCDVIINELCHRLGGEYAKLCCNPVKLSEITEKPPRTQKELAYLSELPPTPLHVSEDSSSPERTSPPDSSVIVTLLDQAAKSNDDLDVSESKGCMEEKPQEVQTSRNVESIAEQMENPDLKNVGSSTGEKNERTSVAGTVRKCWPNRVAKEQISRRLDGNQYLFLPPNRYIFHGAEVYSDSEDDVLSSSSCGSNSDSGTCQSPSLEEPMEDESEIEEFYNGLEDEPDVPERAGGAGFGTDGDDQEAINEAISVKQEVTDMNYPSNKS
Test: TAMRA based mass spectrometry assay of SIRT1 activity
Format: biochemical
Settings: TAMRA assay; for TAMRA EC1.5 (μM): concentration giving 150% activation of SIRT1; for Emax: percent maximum fold activation, read-out: TAMRA % Fold Act
Outline: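 Deacetylation of a biotinylated, TAMRA-tagged p53-based peptide (0.5 μM) by 10 nM His-tagged SIRT1 with 120 μM βNAD+, 25 °C for 25 min, pH 8 Tris-acetate buffer, across a compound concentration range. Quenched by formic acid and read by mass spec as product peptide or OAADPR; activity relative to DMSO reactions, nicotinamide defining maximal inhibition.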

Compound | TAMRA EC1.5 (μM) | Emax [%]
O=C(Nc1cnc2ccc(-c3ccccc3Cl)nn12)c1nccs1 [Compound 294] | B (EC1.5 1-25 μM) | < 350
CC1(COc2cccc(NC(=O)c3cnc4ccc(-c5ccccc5C(F)(F)F)nn34)n2)COC1 [Compound 295] | A (EC1.5<1 μM) | ≥ 350
O=C(Nc1cnc2ccc(-c3ccccc3F)nn12)c1cscn1 [Compound 298] | B (EC1.5 1-25 μM) | < 350
Cc1nc(C(=O)Nc2cnc3ccc(-c4ccccc4F)nn23)cs1 [Compound 299] | B (EC1.5 1-25 μM) | < 350
Cc1nc(C(=O)Nc2cnc3ccc(-c4ccccc4F)nn23)c(C)s1 [Compound 300] | A (EC1.5<1 μM) | < 350
O=C(Nc1cnc2ccc(-c3ccccc3F)nn12)c1cccc(N2CCOCC2)n1 [Compound 301] | A (EC1.5<1 μM) | ≥ 350
O=C(Nc1cnc2ccc(-c3ccccc3F)nn12)c1cccc(N2CCC2)n1 [Compound 302] | A (EC1.5<1 μM) | ≥ 350
Cc1cnc(C(=O)Nc2cnc3ccc(-c4ccccc4F)nn23)s1 [Compound 304] | B (EC1.5 1-25 μM) | < 350
Cc1cnc(C(=O)Nc2cnc3ccc(-c4ccccc4Cl)nn23)s1 [Compound 306] | B (EC1.5 1-25 μM) | ≥ 350
O=C(Nc1cnc2ccc(-c3ccccc3Cl)nn12)c1cccc(N2CCOCC2)n1 [Compound 307] | A (EC1.5<1 μM) | ≥ 350
Cc1cc(OCC(F)(F)F)nc(NC(=O)c2cnc3ccc(-c4ccccc4C(F)(F)F)nn23)n1 [Compound 310] | A (EC1.5<1 μM) | ≥ 350
O=C(Nc1cnc2ccc(-c3ccccc3OC(F)(F)F)nn12)c1ccccn1 [Compound 312] | A (EC1.5<1 μM) | ≥ 350
O=C(Nc1cnc2ccc(-c3ccccc3OC(F)(F)F)nn12)c1cnccn1 [Compound 313] | A (EC1.5<1 μM) | ≥ 350
O=C(Nc1cnc2ccc(-c3ccccc3OC(F)(F)F)nn12)c1cscn1 [Compound 316] | A (EC1.5<1 μM) | ≥ 350
Cc1nc(C(=O)Nc2cnc3ccc(-c4ccccc4OC(F)(F)F)nn23)c(C)s1 [Compound 318] | A (EC1.5<1 μM) | ≥ 350
O=C(Nc1cnc2ccc(-c3ccccc3OC(F)(F)F)nn12)c1nccs1 [Compound 319] | A (EC1.5<1 μM) | ≥ 350

Compound | TAMRA EC1.5 (μM) | Emax [%]
O=C(Nc1cnc2ccc(-c3ccccc3OC(F)(F)F)nn12)c1cccc(N2CCC2)n1 [Compound 322] | A (EC1.5<1 μM) | ≥ 350
O=C(Nc1ccccn1)c1c(O)nc2ccc(-c3ccccc3C(F)(F)F)nn12 [Compound 324] | B (EC1.5 1-25 μM) | < 350
O=C(Nc1ccnc(OCC(F)(F)F)n1)c1cnc2ccc(-c3ccccc3C(F)(F)F)nn12 [Compound 325] | B (EC1.5 1-25 μM) | < 350
N#Cc1ccccc1-c1ccc2ncc(NC(=O)c3ccccn3)n2n1 [Compound 328] | A (EC1.5<1 μM) | ≥ 350
N#Cc1ccccc1-c1ccc2ncc(NC(=O)c3ccncn3)n2n1 [Compound 330] | B (EC1.5 1-25 μM) | < 350
N#Cc1ccccc1-c1ccc2ncc(NC(=O)c3ncccn3)n2n1 [Compound 331] | B (EC1.5 1-25 μM) | ≥ 350
Cc1nc(C(=O)Nc2cnc3ccc(-c4ccccc4C#N)nn23)cs1 [Compound 333] | B (EC1.5 1-25 μM) | ≥ 350
Cc1nc(C(=O)Nc2cnc3ccc(-c4ccccc4C#N)nn23)c(C)s1 [Compound 334] | A (EC1.5<1 μM) | ≥ 350
Cc1cnc(C(=O)Nc2cnc3ccc(-c4ccccc4C#N)nn23)s1 [Compound 336] | B (EC1.5 1-25 μM) | ≥ 350
N#Cc1ccccc1-c1ccc2ncc(NC(=O)c3cccc(N4CCOCC4)n3)n2n1 [Compound 337] | A (EC1.5<1 μM) | ≥ 350
Cc1cc(NC(=O)c2c(O)nc3ccc(-c4ccccc4C(F)(F)F)nn23)cc(C)n1 [Compound 341] | C (EC1.5>25 μM) | < 350
O=C(Nc1ncccn1)c1c(O)nc2ccc(-c3ccccc3C(F)(F)F)nn12 [Compound 342] | C (EC1.5>25 μM) | 
Cc1cccc(NC(=O)c2c(O)nc3ccc(-c4ccccc4C(F)(F)F)nn23)n1 [Compound 343] | C (EC1.5>25 μM) | < 350
O=C(Nc1cccc(OCC(O)CO)n1)c1c(O)nc2ccc(-c3ccccc3C(F)(F)F)nn12 (centres unmarked) [Compound 344] | B (EC1.5 1-25 μM) | < 350
O=C(Nc1cncc(OCC(O)CO)n1)c1c(O)nc2ccc(-c3ccccc3C(F)(F)F)nn12 (centres unmarked) [Compound 345] | B (EC1.5 1-25 μM) | ≥ 350

More lines, now with the values ahead:

TAMRA EC1.5 (μM) | Emax [%] | Compound
C (EC1.5>25 μM) | < 350 | Cc1nc2ccc(-c3ccccc3Cl)nn2c1NC(=O)c1cnccn1 [Compound 347]
C (EC1.5>25 μM) | < 350 | Cc1nc2ccc(-c3ccccc3Cl)nn2c1NC(=O)c1ncccn1 [Compound 349]
C (EC1.5>25 μM) | < 350 | Cc1nc2ccc(-c3ccccc3Cl)nn2c1NC(=O)c1cscn1 [Compound 350]
B (EC1.5 1-25 μM) | < 350 | Cc1nc2ccc(-c3ccccc3Cl)nn2c1NC(=O)c1nccs1 [Compound 353]
A (EC1.5<1 μM) | ≥ 350 | Cc1nc2ccc(-c3ccccc3Cl)nn2c1NC(=O)c1cccc(N2CCOCC2)n1 [Compound 355]
A (EC1.5<1 μM) | < 350 | Cc1nc2ccc(-c3ccccc3Cl)nn2c1NC(=O)c1cccc(N2CCC2)n1 [Compound 356]
B (EC1.5 1-25 μM) | ≥ 350 | O=C(Nc1ccncc1F)c1cnc2ccc(-c3ccccc3OC(F)(F)F)nn12 [Compound 359]
A (EC1.5<1 μM) | ≥ 350 | Cc1cc(NC(=O)c2cnc3c(C)c(C)c(-c4ccccc4C(F)(F)F)nn23)cc(C)n1 [Compound 361]
A (EC1.5<1 μM) | ≥ 350 | O=C(Nc1cnccn1)c1cnc2ccc(-c3ccccc3OC(F)(F)F)nn12 [Compound 362]
B (EC1.5 1-25 μM) | < 350 | Cc1cc(C)nc(NC(=O)c2c(O)nc3ccc(-c4ccccc4C(F)(F)F)nn23)c1 [Compound 365]
B (EC1.5 1-25 μM) | < 350 | Cc1cc(NC(=O)c2c(O)nc3ccc(-c4ccccc4C(F)(F)F)nn23)ccn1 [Compound 366]
A (EC1.5<1 μM) | ≥ 350 | O=C(Nc1cccc(N2CCOCC2)n1)c1cnc2ccc(-c3ccccc3OCC(O)CO)nn12 (centres unmarked) [Compound 367, 6-(2-(2,3-dihydroxypropoxy)phenyl)-N-(6-morpholinopyridin-2-yl)imidazo[1,2-b]pyridazine-3-carboxamide]
B (EC1.5 1-25 μM) | ≥ 350 | O=C(Nc1ccccn1)c1cnc2ccc(-c3ccccc3OCC(O)CO)nn12 (centres unmarked) [Compound 368]
B (EC1.5 1-25 μM) | ≥ 350 | Cc1cc(NC(=O)c2cnc3ccc(-c4ccccc4OCC(O)CO)nn23)ccn1 (centres unmarked) [Compound 370]

From patent US9957271B2, “Substituted bicyclic aza-heterocycles and analogues as sirtuin modulators” (GlaxoSmithKline, LLC, priority 2012, dated 2018)
